Source: patent US5021415A, “Triazine carboxylic acids and esters” (Bristol-Myers Squibb Co., priority 1990, dated 1991)
≈ marks a conversion by molar mass, not a printed value.

Tested on: ADP-induced aggregation of human platelets
Format: cell-based
Settings: vs ADP, 0.5 mcg/mL final; human platelet rich plasma; Table 2; read-out: Inhibition of Human Platelet Aggregation of Formula II Compounds (IC50) Vs ADP
Description: The aggregometer method of Born, C.V.R., J. Physiol., (London), 1962, 162, 67-68, as modified by Mustard, J.F., et al., J. Lab. […] The blood is immediately added to a test tube containing 3.8% sodium citrate to prevent clotting (1 part citrate to 9 parts blood).
Platelet rich plasma (PRP) was separated by centrifugation for 10 minutes at 1000 rpm (140xg) from citrated (3.8%) human blood. All glassware used for preparation of PRP is silicon treated. ADP in final concentration of 0.5 mcg/mL or 0.05 mL of a collagen suspension prepared according to the method described by Evans, G., et al., J. Exp. Med., 1968, 128, 877-894 was used to induce aggregation. The various compounds tested were dissolved in dimethylsulfoxide (DMSO) so that 5 mcl added to the platelet rich plasma would yield the desired test concentration. Vehicle control trials were done and compared with aggregation induced in platelet rich plasma containing various concentrations of the test compounds. Dose response curves were obtained and Inhibitor Concentration (IC50) values calculated.

Row | Compound | IC50 [µg/mL]
1 | COC(=O)COc1cccc(CCn2nc(-c3ccccc3)c(-c3ccccc3)nc2=O)c1 [Example 5, Methyl [3-[2-(2,3-dihydro-3-oxo-5,6-diphenyl-1,2,4-triazin-2-yl)ethyl]phenoxy]acetate] | 1 (≈ 2.27 µM)
2 | O=C(O)COc1cccc(CCn2nc(-c3ccccc3)c(-c3ccccc3)nc2=O)c1 [Example 6, [3-[2-(2,3-Dihydro-3-oxo-5,6-diphenyl 1,2,4-triazin-2-yl)ethyl]phenoxy]acetic Acid] | 0.9 (≈ 2.11 µM)

Same assay, conditions: vs. ADP, 0.5 mcg/mL final; human platelet rich plasma; Table 1; read-out: Inhibition of Human Platelet Aggregation of Formula I Compounds (IC50) vs. ADP

Row | Compound | IC50 [µg/mL]
3 | COC(=O)CCCCCCCCn1nc(-c2ccccc2)c(-c2ccccc2)nc1=O [Example 1, Methyl 3-oxo-5,6-diphenyl-1,2,4-triazine-2(3H)-nonanoate] | 6.8 (≈ 16.2 µM)
4 | O=C(O)CCCCCCCCn1nc(-c2ccccc2)c(-c2ccccc2)nc1=O [Example 2, 3-Oxo-5,6-diphenyl-1,2,4-triazine-2(3H)-nonanoic acid] | 2.2 (≈ 5.43 µM)
5 | COC(=O)CCCCCCCn1nc(-c2ccccc2)c(-c2ccccc2)nc1=O [Example 3, Methyl 3-Oxo-5,6-diphenyl-1,2,4-triazine-2(3H)-octanoate] | 4.6 (≈ 11.3 µM)
6 | O=C(O)CCCCCCCn1nc(-c2ccccc2)c(-c2ccccc2)nc1=O [Example 4, 3-Oxo-5,6-diphenyl-1,2,4-triazin-2(3H)-octanoic Acid] | 3.1 (≈ 7.92 µM)
